{"source": "paper PMC8217170", "about": "“Phase Ib dose-escalation study of the hypoxia-modifier Myo-inositol trispyrophosphate in patients with hepatopancreatobiliary tumors” (Nature Communications, 2021)", "key": {"VEGFA": {"test_system": "VEGFA", "assay": "Serum angiogenesis marker, multiplex bead-based immunoassay (LEGENDplex)", "assay_type": "in vivo, human", "set-up": "VEGF: unit not given here", "conditions": "for VEGF: serum, duplicate wells"}, "[1]": {"set-up": "method as in Swissmedic special application Nr. SBH12-1310", "conditions": "one cancer patient, monotherapy 5600 mg/m2 once a week for 5 weeks; ref Swissmedic special application Nr. SBH12-1310; cited from earlier work"}, "ANG2": {"test_system": "ANG2", "assay": "Serum angiogenesis marker, multiplex bead-based immunoassay (LEGENDplex)", "assay_type": "in vivo, human", "set-up": "ANG2: unit not given here", "conditions": "for ANG2: serum, duplicate wells"}, "hepatocellular carcinoma": {"test_system": "hepatocellular carcinoma", "set-up": "method as in ref 10 (supplementary references)", "conditions": "syngeneic, orthotopic rat model of hepatocellular carcinoma; ref 10 (supplementary references); cited from earlier work"}, "PECAM1/CD31": {"test_system": "PECAM1/CD31", "assay": "Serum angiogenesis marker, multiplex bead-based immunoassay (LEGENDplex)", "assay_type": "in vivo, human", "conditions": "for PECAM_1: serum, duplicate wells", "description": "Serum angiogenesis markers were quantified by multiplex bead-based immunoassays following provided instructions (LEGENDplex™, Biolegend, San Diego, CA/USA). For biochemical markers, the percentage change comparing before (day 1 0 h) with after (last day 9 h) ITPP treatment was calculated."}, "[2]": {"set-up": "method as in unpublished data obtained from NormOxys", "conditions": "rats, once a week for 5 weeks; ref unpublished data obtained from NormOxys; cited from earlier work"}, "[3]": {"set-up": "method as in unpublished data obtained from NormOxys", "conditions": "minipigs, once weekly; ref unpublished data obtained from NormOxys; cited from earlier work"}, "[4]": {"conditions": "following ITPP treatment, 27 patients"}, "[5]": {"conditions": "Patient 25, Cohort 8, PDAC, Day 3 post"}, "[6]": {"conditions": "Patient 25, Cohort 8, PDAC, Day 9 post"}, "[7]": {"conditions": "Patient 26, Cohort 8, PDAC, Day 3 post"}, "[8]": {"conditions": "Patient 26, Cohort 8, PDAC, Day 9 post"}, "[9]": {"conditions": "Patient 27, Cohort 8, CCC, Day 3 post"}, "[10]": {"conditions": "Patient 27, Cohort 8, CCC, Day 9 post"}, "[11]": {"conditions": "Patient 28, Cohort 8, CRLM, Day 3 post"}, "[12]": {"conditions": "Patient 28, Cohort 8, CRLM, Day 9 post"}}, "note": "“And” between values parts separate entries of the source, which are not always exact repeats. Equal values may be shown once. Read-outs that look alike come from different tables or passages of the source."}
{"smiles": "O=P1(O)OC2C3OP(=O)(O)OP(=O)(O)OC3C3OP(=O)(O)OP(=O)(O)OC3C2OP(=O)(O)O1", "note": "(stereo not shown) [ITPP, Myo-inositol trispyrophosphate]", "values": [{"measurement": "Share of patients with reduced VEGFA", "setting": "VEGFA; [4]", "result": 44.4, "unit": "%"}, {"measurement": "VEGF", "setting": "VEGFA; [5]", "result": 30.91}, {"measurement": "VEGF", "setting": "VEGFA; [6]", "result": "33.24 and 35.03"}, {"measurement": "VEGF", "setting": "VEGFA; [7]", "result": "5.98 and 4.62"}, {"measurement": "VEGF", "setting": "VEGFA; [8]", "result": "11.09 and 13.08"}, {"measurement": "VEGF", "setting": "VEGFA; [9]", "result": "10.87 and 8.9"}, {"measurement": "VEGF", "setting": "VEGFA; [10]", "result": "8.12 and 8.9"}, {"measurement": "VEGF", "setting": "VEGFA; [11]", "result": 2.84}, {"measurement": "VEGF", "setting": "VEGFA; [12]", "result": 2.84}, {"measurement": "Effect of the drug on the disease", "setting": "[1]", "result": "No effect"}, {"measurement": "Share of patients with reduced ANG2", "setting": "ANG2; [4]", "result": 59.3, "unit": "%"}, {"measurement": "ANG2", "setting": "ANG2; [5]", "result": 228.25}, {"measurement": "ANG2", "setting": "ANG2; [6]", "result": "251.99 and 267.93"}, {"measurement": "ANG2", "setting": "ANG2; [7]", "result": "4.97 and 2.94"}, {"measurement": "ANG2", "setting": "ANG2; [8]", "result": "13.32 and 15.98"}, {"measurement": "ANG2", "setting": "ANG2; [9]", "result": "207.26 and 180.83"}, {"measurement": "ANG2", "setting": "ANG2; [10]", "result": "218.06 and 212.68"}, {"measurement": "ANG2", "setting": "ANG2; [11]", "result": "323.31 and 262.92"}, {"measurement": "ANG2", "setting": "ANG2; [12]", "result": "200.18 and 179.44"}, {"measurement": "Rats alive after 100 days", "setting": "hepatocellular carcinoma", "result": "nine out of ten"}, {"measurement": "Share of patients with reduced PECAM1", "setting": "PECAM1/CD31; [4]", "result": 66.7, "unit": "%"}, {"measurement": "PECAM_1", "setting": "PECAM1/CD31; [5]", "result": 261.09}, {"measurement": "PECAM_1", "setting": "PECAM1/CD31; [6]", "result": "287.51 and 289.5"}, {"measurement": "PECAM_1", "setting": "PECAM1/CD31; [7]", "result": "298.56 and 289.5"}, {"measurement": "PECAM_1", "setting": "PECAM1/CD31; [8]", "result": "215.26 and 221.83"}, {"measurement": "PECAM_1", "setting": "PECAM1/CD31; [9]", "result": "350.64 and 331.88"}, {"measurement": "PECAM_1", "setting": "PECAM1/CD31; [10]", "result": "286.17 and 303.44"}, {"measurement": "PECAM_1", "setting": "PECAM1/CD31; [11]", "result": "299.11 and 271.68"}, {"measurement": "PECAM_1", "setting": "PECAM1/CD31; [12]", "result": "262.91 and 211.07"}, {"measurement": "Human equivalent dose-corrected NOAEL", "setting": "[2]", "result": "15,000 mg/m2"}, {"measurement": "Human equivalent dose-corrected NOAEL", "setting": "[3]", "result": "43,750 mg/m2"}]}
